From patent publication US8653276B2 (SANOFI, priority 2008, dated 2014) come the findings set out here.

Structures are written as SMILES. Counter-ions that a name gives are not always drawn.

The target of the first data set is T1, human GPR14 receptor (Homo sapiens, UniProt Q9UKP6).
T1 sequence (Q9UKP6 1-389): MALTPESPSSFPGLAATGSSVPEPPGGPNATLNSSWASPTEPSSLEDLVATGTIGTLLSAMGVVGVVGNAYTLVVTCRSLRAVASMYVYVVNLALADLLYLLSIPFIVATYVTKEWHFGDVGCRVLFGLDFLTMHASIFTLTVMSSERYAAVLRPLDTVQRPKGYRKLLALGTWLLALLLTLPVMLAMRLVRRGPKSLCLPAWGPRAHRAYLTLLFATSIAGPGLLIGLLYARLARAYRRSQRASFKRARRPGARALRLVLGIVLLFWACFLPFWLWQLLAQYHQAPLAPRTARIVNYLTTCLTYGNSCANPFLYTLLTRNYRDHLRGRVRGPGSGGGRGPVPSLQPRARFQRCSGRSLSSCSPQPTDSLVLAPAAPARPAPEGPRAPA
The data set is described as follows: cell-based.
Method: GPR14 is a 7-domain transmembrane receptor coupled to Gq. Its activation with a specific ligand causes an increase in Ca^2+ in the cell via the PLC (phospholipase C), IP3 (inositol-1,4,5-triphosphate) DAG (diacylglycerol) route.
The increase in Ca^2+ in the cell is measured using a Fluo4AM permeating probe (monoexcitation, monoemission probe) which binds to the free Ca^2+ and emits at 520 nm. The free probe is nonfluorescent in the absence of Ca^2+.
Experiment Plan • 1) Seeding of the cells on D-1 (day-1) or D-2 • 2) Incorporation/charge (D0) of the probe (1 h) • 3) Addition of the products to the FlipR and measurement • 4) Addition of the ligand to the FlipR and measurement in the presence of the products • 5) Processing and exportation of the data
The cells are cultured in whole medium in a T225 flask. For the experiments, the cells are subcultured in 200 μl of culture medium in transparent-bottomed black 96-well plates at a rate of 60 000 cells/well for a use on D+1 or 40 000 cells/well for a use on D+2.
Fluo-4AM is prepared at 20 mM and then divided into aliquots (50 μl) and stored at −20° C. sheltered from light. A solution of pluronic acid at 200 mg/ml in DMSO is also prepared (it keeps for one week at room temperature sheltered from light).
The cells are charged with the mixture of Fluo-4AM+pluronic acid (aliquots of 50 μl+50 μl of pluronic acid) diluted to 1/100 in the measuring buffer.
After washing the wells with 150 μl of measuring buffer (cf. appendix), the cells are then charged in the following manner: • distribution of 100 μl of measuring buffer into each well • addition of 10 μl of the Fluo-4AM+pluronic acid mixture diluted to 1/100.
The cells are incubated for 1 hour at 37° C. sheltered from light, in an incubator in the presence of 5% CO2.
The cells are then washed 3 times with 150 μl of measuring buffer to remove the excess probe. A volume of 150 μl of buffer is added to each well at the end of washing.
After incubating the plates for 20 minutes at room temperature sheltered from light, they are placed in the FlipR for the fluorescence measurement.
The basic level of incorporation of the Fluo-4 is checked for each plate (sd<10%) before the first injection.
After stabilizing the base signal, the GPR14 inhibitor compounds are injected via the FlipR in a volume of 50 μl using a dilution plate prepared with Biomek 2000 as measuring buffer.
The data are recorded continuously throughout the experiment.
For each plate, the base fluorescence before injection of the compounds is normalized via the “spatial uniformity correction” function of the FlipR. […] In each plate, a series of wells is treated with urotensin alone in the absence of inhibitor compound.
The percentage of inhibition for each concentration of product is calculated as described below: Inhibition(%)=100×(delta Uro II−delta product)/delta Uro II
One may read the IC50 as the concentration needed to halve the response being measured. Low values mean inhibition by little substance, high ones a need for much substance. In turn, `COC(=O)[C@]1(NC(=O)c2ccc(-c3ccccc3C)c(-c3ccc(Cl)c(OCCCN(C)C)c3)n2)CC[C@@H](O)CC1` [Compound 42, methyl cis-1-({[6-{4-chloro-3-[3-(dimethylamino)propoxy]phenyl}-5-(2-methylphenyl)pyridin-2-yl]carbonyl}amino)-4-hydroxycyclohexanecarboxylate] gave an IC50 of 95 nM.

The compound `CCCOc1ccc(Cl)c(-c2ccc(C(=O)NC3(C(=O)OC)CCCCC3)nc2-c2ccc(Cl)c(OCCCN(C)C)c2)c1` [Compound 9, methyl 1-({[6-{4-chloro-3-[3-(dimethylamino)propoxy]phenyl}-5-(2-chloro-5-propoxyphenyl)pyridin-2-yl]carbonyl}amino)cyclohexanecarboxylate] had an IC50 of 1400 nM.

Turning to `COC(=O)C1(NC(=O)c2ccc(-c3ncc(C)cc3Cl)c(-c3ccc(Cl)c(OCCCN(C)C)c3)n2)CCCCC1` [Compound 5, methyl 1-{[(3-chloro-2′-{4-chloro-3-[3-(dimethylamino)propoxy]phenyl}-5-methyl-2,3′-bipyridin-6′-yl)carbonyl]amino}cyclohexanecarboxylate], it took 540 nM to reach half-maximal inhibition (IC50).

`COC(=O)C1(NC(=O)c2ccc(-c3ncc(C)cc3C)c(-c3ccc(Cl)c(OCCCN(C)C)c3)n2)CCCCC1` [Compound 13, methyl 1-{[(2′-{4-chloro-3-[3-(dimethylamino)propoxy]phenyl}-3,5-dimethyl-2,3′-bipyridin-6′-yl)carbonyl]amino}cyclohexanecarboxylate]: the midpoint of inhibition, the IC50, lay at 846 nM.

`COC(=O)C1(NC(=O)c2ccc(-c3cc4c(cc3C)OCO4)c(-c3ccc(Cl)c(OCCCN(C)C)c3)n2)CCCCC1` [Compound 11, methyl 1-({[6-{4-chloro-3-[3-(dimethylamino)propoxy]phenyl}-5-(6-methyl-1,3-benzodioxol-5-yl)pyridin-2-yl]carbonyl}amino)cyclohexanecarboxylate] came in with an IC50 of 566 nM.

The compound `COC(=O)C1(NC(=O)c2ccc(-c3ccccc3C)c(-c3ccc(Cl)c(OCCCN(C)C)c3)n2)CCCCC1` [Compound 4, methyl 1-({[6-{4-chloro-3-[3-(dimethylamino)propoxy]phenyl}-5-(2-methylphenyl)pyridin-2-yl]carbonyl}amino)cyclohexanecarboxylate] displayed an IC50 of 630 nM.

For `CNC(=O)C[C@H](NC(=O)c1ccc(-c2ccccc2C)c(-c2ccc(Cl)c(OCCCN(C)C)c2)n1)C(C)(C)C` [Compound 33, 6-{4-chloro-3-[3-(dimethylamino)propoxy]phenyl}-N-{(1S)-2,2-dimethyl-1-[2-(methylamino)-2-oxoethyl]propyl}-5-(2-methylphenyl)pyridine-2-carboxamide], the IC50 was 450 nM.

As for `COC(=O)C1(NC(=O)c2cnc(-c3ccc(C)cc3C)c(-c3ccc(Cl)c(OCCCN(C)C)c3)n2)CCCCC1` [Compound 20, methyl 1-({[6-{4-chloro-3-[3-(dimethylamino)propoxy]phenyl}-5-(2,4-dimethylphenyl)pyrazin-2-yl]carbonyl}amino)cyclohexanecarboxylate], the half-inhibitory concentration (IC50) was determined as 116 nM.

Compound `CCOc1ccc(Cl)c(-c2ncc(C(=O)N[C@@H](CC(=O)OC)C(C)(C)C)nc2-c2ccc(Cl)c(OCCCN(C)C)c2)c1` [Compound 24, methyl(3S)-3-({[6-{4-chloro-3-[3-(dimethylamino)propoxy]phenyl}-5-(2-chloro-5-ethoxyphenyl)pyrazin-2-yl]carbonyl}amino)-4,4-dimethylpentanoate] gave an IC50 of 102 nM.

`COC(=O)[C@]1(NC(=O)c2ccc(-c3ncc(C)cc3Cl)c(-c3ccc(Cl)c(OCCCN(C)C)c3)n2)CC[C@@H](O)CC1` [Compound 44, methyl cis-1-{[(3-chloro-2′-{4-chloro-3-[3-(dimethylamino)propoxy]phenyl}-5-methyl-2,3′-bipyridin-6′-yl)carbonyl]amino}-4-hydroxycyclohexanecarboxylate] had an IC50 of 660 nM.

Turning to `COC(=O)C1(NC(=O)c2ccc(-c3ncc(Cl)cc3Cl)c(-c3ccc(Cl)c(OCCCN(C)C)c3)n2)CCCCC1` [Compound 1, methyl 1-{[(3,5-dichloro-2′-{4-chloro-3-[3-(dimethylamino)propoxy]phenyl}-2,3′-bipyridin-6′-yl)carbonyl]amino}cyclohexanecarboxylate], 1600 nM corresponded to half-maximal inhibition (IC50).

`COC(=O)C1(NC(=O)c2ccc(-c3cc(C4CC4)ccc3C)c(-c3ccc(Cl)c(OCCCN(C)C)c3)n2)CCCCC1` [Compound 7, methyl 1-({[6-{4-chloro-3-[3-(dimethylamino)propoxy]phenyl}-5-(5-cyclopropyl-2-methylphenyl)pyridin-2-yl]carbonyl}amino)cyclohexanecarboxylate] displayed an IC50 of 330 nM.

With `COC(=O)C1(NC(=O)c2ccc(-c3ccccc3Cl)c(-c3ccc(Cl)c(OCCCN(C)C)c3)n2)C2CC3CC(C2)CC1C3` (stereo not drawn) [Compound 26, methyl 2-({[6-{4-chloro-3-[3-(dimethylamino)propoxy]phenyl}-5-(2-chlorophenyl)pyridin-2-yl]carbonyl}amino)adamantane-2-carboxylate], the IC50 was 170 nM.

In the case of `COC(=O)C1(NC(=O)c2ccc(-n3nc(C)cc3C)c(-c3ccc(Cl)c(OCCCN(C)C)c3)n2)CCCCC1` [Compound 18, methyl 1-({[6-{4-chloro-3-[3-(dimethylamino)propoxy]phenyl}-5-(3,5-dimethyl-1H-pyrazol-1-yl)pyridin-2-yl]carbonyl}amino)cyclohexanecarboxylate], the IC50 was determined as 1080 nM.

Compound `COC(=O)C1(NC(=O)c2ccc(-c3ccc(O)cc3C)c(-c3ccc(Cl)c(OCCCN(C)C)c3)n2)CCCCC1` [Compound 2, methyl 1-({[6-{4-chloro-3-[3-(dimethylamino)propoxy]phenyl}-5-(4-hydroxy-2-methylphenyl)pyridin-2-yl]carbonyl}amino)cyclohexanecarboxylate] registered an IC50 of 1700 nM.

Take `CCOC(=O)C[C@H](NC(=O)c1ccc(-c2ccccc2C)c(-c2ccc(Cl)c(OCCCN(C)C)c2)n1)C(C)(C)C` [Compound 29, ethyl(3S)-3-({[6-{4-chloro-3-[3-(dimethylamino)propoxy]phenyl}-5-(2-methylphenyl)pyridin-2-yl]carbonyl}amino)-4,4-dimethylpentanoate]: it took 253 nM to reach half-maximal inhibition (IC50).

Test system in another data set: not given
Experiment: not given
Broadly, the melting point is the temperature, or range, at which the solid turns liquid. In turn, `CCOC(=O)C[C@H](NC(=O)c1ccc(-c2ccccc2C)c(-c2ccc(Cl)c(OCCCN(C)C)c2)n1)C(C)(C)C` (as salt: hydrochloride) [Compound 29, ethyl(3S)-3-({[6-{4-chloro-3-[3-(dimethylamino)propoxy]phenyl}-5-(2-methylphenyl)pyridin-2-yl]carbonyl}amino)-4,4-dimethylpentanoate] gave a melting point of 90 °C.

`COC(=O)C1(NC(=O)c2ccc(-c3ncc(Cl)cc3Cl)c(-c3ccc(Cl)c(OCCCN(C)C)c3)n2)CCCCC1` (as salt: hydrochloride) [Compound 1, methyl 1-{[(3,5-dichloro-2′-{4-chloro-3-[3-(dimethylamino)propoxy]phenyl}-2,3′-bipyridin-6′-yl)carbonyl]amino}cyclohexanecarboxylate] came in with a melting point of 168 °C.

With `CCCOc1ccc(Cl)c(-c2ccc(C(=O)NC3(C(=O)OC)CCCCC3)nc2-c2ccc(Cl)c(OCCCN(C)C)c2)c1` (as salt: hydrochloride) [Compound 9, methyl 1-({[6-{4-chloro-3-[3-(dimethylamino)propoxy]phenyl}-5-(2-chloro-5-propoxyphenyl)pyridin-2-yl]carbonyl}amino)cyclohexanecarboxylate], the melting point is 117 °C.

`COC(=O)C1(NC(=O)c2ccc(-c3ncc(C)cc3C)c(-c3ccc(Cl)c(OCCCN(C)C)c3)n2)CCCCC1` (as salt: hydrochloride) [Compound 13, methyl 1-{[(2′-{4-chloro-3-[3-(dimethylamino)propoxy]phenyl}-3,5-dimethyl-2,3′-bipyridin-6′-yl)carbonyl]amino}cyclohexanecarboxylate] yielded a melting point of 176 °C.

On to `COC(=O)C1(NC(=O)c2cnc(-c3ccc(C)cc3C)c(-c3ccc(Cl)c(OCCCN(C)C)c3)n2)CCCCC1` (as salt: hydrochloride) [Compound 20, methyl 1-({[6-{4-chloro-3-[3-(dimethylamino)propoxy]phenyl}-5-(2,4-dimethylphenyl)pyrazin-2-yl]carbonyl}amino)cyclohexanecarboxylate], for which the melting point was 118 °C.

As for `CNC(=O)C[C@H](NC(=O)c1ccc(-c2ccccc2C)c(-c2ccc(Cl)c(OCCCN(C)C)c2)n1)C(C)(C)C` (as salt: hydrochloride) [Compound 33, 6-{4-chloro-3-[3-(dimethylamino)propoxy]phenyl}-N-{(1S)-2,2-dimethyl-1-[2-(methylamino)-2-oxoethyl]propyl}-5-(2-methylphenyl)pyridine-2-carboxamide], the melting point came out at 152 °C.

Turning to `COC(=O)C1(NC(=O)c2ccc(-c3cc(C4CC4)ccc3C)c(-c3ccc(Cl)c(OCCCN(C)C)c3)n2)CCCCC1` (as salt: hydrochloride) [Compound 7, methyl 1-({[6-{4-chloro-3-[3-(dimethylamino)propoxy]phenyl}-5-(5-cyclopropyl-2-methylphenyl)pyridin-2-yl]carbonyl}amino)cyclohexanecarboxylate], the melting point is 114 °C.

`COC(=O)C1(NC(=O)c2ccc(-n3nc(C)cc3C)c(-c3ccc(Cl)c(OCCCN(C)C)c3)n2)CCCCC1` (as salt: hydrochloride) [Compound 18, methyl 1-({[6-{4-chloro-3-[3-(dimethylamino)propoxy]phenyl}-5-(3,5-dimethyl-1H-pyrazol-1-yl)pyridin-2-yl]carbonyl}amino)cyclohexanecarboxylate] returned a melting point of 158 °C.
